{"source": "paper PMC6695665", "about": "“Interrogating the Essential Bacterial Cell Division Protein FtsQ with Fragments Using Target Immobilized NMR Screening (TINS)” (International Journal of Molecular Sciences, 2019)", "experiment_in_all_cases": "1H, […]-HSQC NMR chemical shift perturbation; TINS primary screen (T/R […])", "type_in_all_cases": "binding", "key": {"[1]": {"molecular_target": "T1, FtsQ (Escherichia coli, UniProt P06136)", "T1 construct": "soluble periplasmic domain (FtsQp), 15N-labeled, N-terminal tags cleaved by TEV", "T1 sequence (P06136 50-276)": "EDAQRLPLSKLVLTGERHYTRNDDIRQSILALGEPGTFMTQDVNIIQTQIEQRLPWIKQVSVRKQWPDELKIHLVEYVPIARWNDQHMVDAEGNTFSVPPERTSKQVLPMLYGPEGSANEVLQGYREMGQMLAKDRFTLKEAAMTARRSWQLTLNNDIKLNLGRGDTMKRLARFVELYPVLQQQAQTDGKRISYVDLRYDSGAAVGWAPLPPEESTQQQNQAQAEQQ"}, "[2]": {"molecular_target": "T1, FtsQ", "remark": "listed apart in the source"}, "[3]": {"molecular_target": "T1, FtsQ", "remark": "listed apart in the source"}}, "note": "Like-named read-outs stand apart in the source and are kept apart here."}
{"compound": "C=C1[C@H](O)C[C@@H]2C[C@H]1C2(C)C", "note": "[compound 2]", "values": [{"measurement": "Kd", "setting": "[1]", "result": "> 1000", "unit": "µM"}]}
{"compound": "N[C@@H](Cc1cn(Cc2ccccc2)cn1)C(=O)O", "note": "[compound 1]", "values": [{"measurement": "Kd", "setting": "[2]", "result": "> 1000", "unit": "µM"}]}
{"compound": "CN(C)c1nc(=O)n(C2CCCCC2)c(=O)n1C", "note": "[compound 3]", "values": [{"measurement": "Kd", "setting": "[3]", "result": "> 1000", "unit": "µM"}]}
